Reference: patent US5593984A, “Cephalosporin derivatives” (Yuhan Corporation, priority 1992, dated 1997)
≈ marks a conversion by molar mass, not a printed value.

Experiments:
Format in all cases: cell-based
M. morganii DY-1 = assay: MIC by agar dilution, M. morganii DY-1; conditions: Morganella morganii, DY1, 17 h; M. morganii DY-1; agar dilution, Mueller-Hinton agar; read-out: Minimal Inhibitory Concentration (MIC)
Description: (§1) These MIC values were determined by agar dilution method: that is, two-fold dilutions of each of the test compounds were made and dispersed in a Mueller-Hinton agar medium; standard test strain which had the 10^6 CFU (Colony Forming Unit) per ml was inoculated on the medium with microplanter (Toyo, Japan), and incubated at 35°-37° C. for 17±1 hours. The structures of Ceftazidime (CAZ) and Cefotaxime (CTX) which are used as control compounds are as follows: [drawing 12]

Staph. aureus C-5113 = assay: MIC by agar dilution, Staph. aureus C-5113; conditions: Staphylococcus aureus, C5113, 17 h, Mueller-Hinton agar, read-out: Minimal Inhibitory Concentration (MIC)
Description: as §1

K. pneumoniae NCTC 9632 = assay: MIC by agar dilution, K. pneumoniae NCTC 9632; conditions: Klebsiella pneumoniae, NCTC9632, 17 h; K. pneumoniae NCTC 9632; agar dilution, Mueller-Hinton agar; read-out: Minimal Inhibitory Concentration (MIC)
Description: as §1

Staph. aureus Smith = assay: MIC by agar dilution, Staph. aureus Smith; conditions: Staphylococcus aureus, 17 h, Mueller-Hinton agar, read-out: Minimal Inhibitory Concentration (MIC)
Description: as §1

[1] = test system: Ps. aeruginosa NCTC 10490; assay: MIC by agar dilution, Ps. aeruginosa NCTC 10490; conditions: Pseudomonas aeruginosa, NCTC10490, 17 h, Mueller-Hinton agar, read-out: Minimal Inhibitory Concentration (MIC)
Description: as §1

Prov. stuartii IFO 12930 = assay: MIC by agar dilution, Prov. stuartii IFO 12930; conditions: Providencia stuartii, IFO12930, 17 h, Mueller-Hinton agar, read-out: Minimal Inhibitory Concentration (MIC)
Description: as §1

Staph. aureus C-5216 = assay: MIC by agar dilution, Staph. aureus C-5216; conditions: Staphylococcus aureus, C5216, 17 h, Mueller-Hinton agar, read-out: Minimal Inhibitory Concentration (MIC)
Description: as §1

[2] = test system: Ser. marcescens IFO 12648; assay: MIC by agar dilution, Ser. marcescens IFO 12648; conditions: Serratia marcescens, IFO12648, 17 h; Ser. marcescens IFO 12648; agar dilution, Mueller-Hinton agar; read-out: Minimal Inhibitory Concentration (MIC)
Description: as §1

P. vulgaris NCTC 8313 = assay: MIC by agar dilution, P. vulgaris NCTC 8313; conditions: Proteus vulgaris, NCTC8313, 17 h; P. vulgaris NCTC 8313; agar dilution, Mueller-Hinton agar; read-out: Minimal Inhibitory Concentration (MIC)
Description: as §1

Ps. aeruginosa DY-2 = assay: MIC by agar dilution, Ps. aeruginosa DY-2; conditions: Pseudomonas aeruginosa, DY2, 17 h; Ps. aeruginosa DY-2; agar dilution, Mueller-Hinton agar; read-out: Minimal Inhibitory Concentration (MIC)
Description: as §1

[3] = test system: S. epidermidis ATCC 12228; assay: MIC by agar dilution, S. epidermidis ATCC 12228; conditions: Staphylococcus epidermidis, ATCC12228, 17 h; S. epidermidis ATCC 12228; agar dilution, Mueller-Hinton agar; read-out: Minimal Inhibitory Concentration (MIC)
Description: as §1

E. coli DY-1 = assay: MIC by agar dilution, E. coli DY-1; conditions: Escherichia coli, DY1, 17 h; E. coli DY-1; agar dilution, Mueller-Hinton agar; read-out: Minimal Inhibitory Concentration (MIC)
Description: as §1

Staph. aureus C-57 = assay: MIC by agar dilution, Staph. aureus C-57; conditions: Staphylococcus aureus, C57, 17 h, Mueller-Hinton agar, read-out: Minimal Inhibitory Concentration (MIC)
Description: as §1

Staph. aureus ATCC 6538P = assay: MIC by agar dilution, Staph. aureus ATCC 6538P; conditions: Staphylococcus aureus, ATCC6538P, 17 h; Staph. aureus ATCC 6538P; agar dilution, Mueller-Hinton agar; read-out: Minimal Inhibitory Concentration (MIC)
Description: as §1

E. coli No. 29 = assay: MIC by agar dilution, E. coli No. 29; conditions: Escherichia coli, 17 h; E. coli No. 29; agar dilution, Mueller-Hinton agar; read-out: Minimal Inhibitory Concentration (MIC)
Description: as §1

E. coli NIHJ JC-2 = assay: MIC by agar dilution, E. coli NIHJ JC-2; conditions: Escherichia coli, NIHJJC2, 17 h; E. coli NIHJ JC-2; agar dilution, Mueller-Hinton agar; read-out: Minimal Inhibitory Concentration (MIC)
Description: as §1

B. subtilis ATCC 6633 = assay: MIC by agar dilution, B. subtilis ATCC 6633; conditions: Bacillus subtilis, ATCC6633, 17 h; B. subtilis ATCC 6633; agar dilution, Mueller-Hinton agar; read-out: Minimal Inhibitory Concentration (MIC)
Description: as §1

[4] = test system: Ps. aeruginosa ATCC 10145; assay: MIC by agar dilution, Ps. aeruginosa ATCC 10145; conditions: Pseudomonas aeruginosa, ATCC10145, 17 h, Mueller-Hinton agar, read-out: Minimal Inhibitory Concentration (MIC)
Description: as §1

Ent. aerogenes IFO 12979 = assay: MIC by agar dilution, Ent. aerogenes IFO 12979; conditions: Klebsiella aerogenes, IFO12979, 17 h, Mueller-Hinton agar, read-out: Minimal Inhibitory Concentration (MIC)
Description: as §1

Ent. cloacae IFO 13535 = assay: MIC by agar dilution, Ent. cloacae IFO 13535; conditions: Enterobacter cloacae, IFO13535, 17 h; Ent. cloacae IFO 13535; agar dilution, Mueller-Hinton agar; read-out: Minimal Inhibitory Concentration (MIC)
Description: as §1

MIC (M. morganii DY-1) [µg/mL] | MIC (Staph. aureus C-5113) [µg/mL] | MIC (K. pneumoniae NCTC 9632) [µg/mL] | MIC (Staph. aureus Smith) [µg/mL] | MIC [1] [µg/mL] | MIC (Prov. stuartii IFO 12930) [µg/mL] | MIC (Staph. aureus C-5216) [µg/mL] | MIC [2] [µg/mL] | MIC (P. vulgaris NCTC 8313) [µg/mL] | MIC (Ps. aeruginosa DY-2) [µg/mL] | MIC [3] [µg/mL] | MIC (E. coli DY-1) [µg/mL] | MIC (Staph. aureus C-57) [µg/mL] | MIC (Staph. aureus ATCC 6538P) [µg/mL] | MIC (E. coli No. 29) [µg/mL] | MIC (E. coli NIHJ JC-2) [µg/mL] | MIC (B. subtilis ATCC 6633) [µg/mL] | MIC [4] [µg/mL] | MIC (Ent. aerogenes IFO 12979) [µg/mL] | MIC (Ent. cloacae IFO 13535) [µg/mL] | Compound
0.05 (≈ 0.0895 µM) | 3.13 (≈ 5.6 µM) | 0.05 (≈ 0.0895 µM) | 1.56 (≈ 2.79 µM) | 1.56 (≈ 2.79 µM) | ≤ 0.006 | 1.56 (≈ 2.79 µM) | 0.1 (≈ 0.179 µM) | 0.012 (≈ 0.0215 µM) | 25 (≈ 44.8 µM) | 0.05 (≈ 0.0895 µM) | 0.05 (≈ 0.0895 µM) | 25 (≈ 44.8 µM) | 0.39 (≈ 0.698 µM) | 0.05 (≈ 0.0895 µM) | 0.1 (≈ 0.179 µM) | 0.39 (≈ 0.698 µM) | 6.25 (≈ 11.2 µM) | 0.05 (≈ 0.0895 µM) | 0.78 (≈ 1.4 µM) | CON=C(C(=O)NC1C(=O)N2C(C(=O)[O-])=C(C[n+]3ccn4c([N+](=O)[O-])ccc4c3)CSC12)c1csc(N)n1 (stereo not drawn) [Ex. 14, 7-β-[(Z)-2-(2-aminothiazol-4-yl)-2-methoxyiminoacetamido]-3-(6-nitropyrrolo[1,2-a]pyrazinium-2-yl)methyl-3-cephem-4-carboxylate]
0.1 (≈ 0.173 µM) | 0.39 (≈ 0.675 µM) | 0.1 (≈ 0.173 µM) | 0.39 (≈ 0.675 µM) | 0.2 (≈ 0.346 µM) | ≤ 0.006 | 0.78 (≈ 1.35 µM) | 0.1 (≈ 0.173 µM) | 0.025 (≈ 0.0433 µM) | 3.13 (≈ 5.41 µM) | 0.012 (≈ 0.0208 µM) | ≤ 0.006 | 1.56 (≈ 2.7 µM) | 0.2 (≈ 0.346 µM) | 0.025 (≈ 0.0433 µM) | 0.1 (≈ 0.173 µM) | 0.1 (≈ 0.173 µM) | 1.56 (≈ 2.7 µM) | 0.05 (≈ 0.0865 µM) | 0.39 (≈ 0.675 µM) | CO/N=C(\C(=O)N[C@@H]1C(=O)N2C(C(=O)[O-])=C(C[n+]3ccn4c(CO)ccc4c3)CS[C@H]12)c1nc(N)sc1Cl [Ex. 49, 7-β-[(Z)-2-(2-amino-5-chlorothiazol-4-yl)-2-methoxyiminoacetamido]-3-(6-hydroxymethylpyrrolo[1,2-a]-pyrazinium-2-yl)methyl-3-cephem-4-carboxylate]
0.012 (≈ 0.0227 µM) | 0.78 (≈ 1.48 µM) | ≤ 0.006 | 0.2 (≈ 0.379 µM) | 0.39 (≈ 0.739 µM) | ≤ 0.006 | 0.78 (≈ 1.48 µM) | 0.012 (≈ 0.0227 µM) | 0.012 (≈ 0.0227 µM) | 3.13 (≈ 5.93 µM) | 0.05 (≈ 0.0948 µM) | ≤ 0.006 | 12.5 (≈ 23.7 µM) | 0.05 (≈ 0.0948 µM) | ≤ 0.006 | 0.012 (≈ 0.0227 µM) | 0.1 (≈ 0.19 µM) | 0.78 (≈ 1.48 µM) | 0.012 (≈ 0.0227 µM) | 0.025 (≈ 0.0474 µM) | CO/N=C(\C(=O)N[C@@H]1C(=O)N2C(C(=O)[O-])=C(C[n+]3ccn4cccc4c3C)CS[C@H]12)c1csc(N)n1 [Ex. 40, 7-β-[(Z)-2-(2-aminothiazol-4-yl)-2-methoxylminoacetamido]-3-(1-methylpyrrolo[1,2-a]pyrazinium-2-yl)methyl-3-cephem-4-carboxylate]
0.2 (≈ 0.36 µM) | 3.13 (≈ 5.63 µM) | 0.2 (≈ 0.36 µM) | 3.13 (≈ 5.63 µM) | 1.56 (≈ 2.81 µM) | 0.05 (≈ 0.09 µM) | 3.13 (≈ 5.63 µM) | 0.1 (≈ 0.18 µM) | 0.025 (≈ 0.045 µM) | 12.5 (≈ 22.5 µM) | 0.1 (≈ 0.18 µM) | 0.05 (≈ 0.09 µM) | 100 (≈ 180 µM) | 1.56 (≈ 2.81 µM) | 0.05 (≈ 0.09 µM) | 0.1 (≈ 0.18 µM) | 0.39 (≈ 0.702 µM) | 6.25 (≈ 11.2 µM) | 0.05 (≈ 0.09 µM) | 3.13 (≈ 5.63 µM) | CCON=C(C(=O)NC1C(=O)N2C(C(=O)[O-])=C(C[n+]3ccn4c(C=O)ccc4c3)CSC12)c1csc(N)n1 (stereo not drawn) [Ex. 26, 7-β-[(Z)-2-(2-aminothiazol-4-yl)2-ethoxyiminoacetamido]-3-(6-formylpyrrolo[1,2-a]pyrazinium-2-yl)methyl-3-cephem-4-carboxylate]
